Measurements from US11911346B2, “Orally administrated therapeutic for treating mild cognitive impairment (MCI) and improving human cognitive function” (BrainCare LLC, priority 2021, dated 2024).
Values joined by “and” are separate entries in the source; they are usually repeats but may differ in a detail not shown here. Equal values may be shown once.

Experiments:
[1] = tested on: reasoning and planning of participants with Subjective Cognitive Decline; assay: Cambridge Brain Sciences (CBS) Spatial Planning test; assay type: in vivo, human
From the text: (§1) The Cambridge Brain Sciences (CBS) included a battery of four tests to measure various aspects of cognition and that affected different regions of the brain. Normal scores for each test ranged from 87 to 113.
The first test is the Spatial Planning test, which addresses reasoning and planning. It tests for non-Alzheimer's dementia but has a high correlation with aging. It has a high reproducibility and is useful to distinguish impaired and unimpaired populations. The parts of the brain implicated include: frontal lobe, mid-dorsolateral frontal cortex, caudate nucleus, thalamus, lateral premotor, and anterior cingulate.
(§2) The data are presented as mean±standard deviation (S.D.) at baseline, week 4, and week 8. Results from the Cognitive Failures Questionnaire and Cambridge Brain Sciences are compared using the Student's t-test in each intervention group between baseline and week 4 and between baseline and week 8. Significance was defined as p≤0.05. At each time point, the percentage change was compared with the values at baseline. This calculation was only obtained from the means between each time point, and the statistical analysis was not made on these percentage changes.
(§3) For Cambridge Brain Sciences tests, some responses were flagged as being a highly unusual response (found in less than 1% of Cambridge Brain Sciences normative database). […] These scores were considered to be invalid and excluded from the final analysis. For each participant, the combined mean scores of all four CBS tests were summed for at baseline and at week 8. The participants were then grouped according to these mean baseline score of all four tests as: below average (less than or equal to 100) and average and above (greater than 100).

[2] = tested on: concentration and response inhibition of participants with Subjective Cognitive Decline; assay: Cambridge Brain Sciences (CBS) Double Trouble test; assay type: in vivo, human; conditions: for Double Trouble actual score: Week 4, normal 87-113
From the text: as §1
The second test is Double Trouble and addresses concentration and response inhibition. It can detect early Alzheimer's disease and age-related cognitive decline. It has a high reproducibility and is useful in distinguishing impaired and unimpaired aging. The parts of the brain involved include the right prefrontal cortex and dorsolateral region.
as §2, §3

[3] = tested on: visuospatial and working memory of participants with Subjective Cognitive Decline; assay: Cambridge Brain Sciences (CBS) Monkey Ladder test; assay type: in vivo, human; conditions: for Monkey Ladder actual score: Week 4, normal 87-113
From the text: as §1
The third test is the Monkey Ladder, which relates visuospatial and working memory. The test can detect early Alzheimer's disease, non-Alzheimer's dementia, and age-related cognitive decline. The parts of the brain involved included: the mid-dorsolateral prefrontal cortex, premotor cortex, and posterior parietal cortex.
as §2, §3

[4] = tested on: concentration and attention of participants with Subjective Cognitive Decline; assay: Cambridge Brain Sciences (CBS) Feature Match test; assay type: in vivo, human; conditions: for Feature Match actual score: Week 4, normal 87-113; for Feature Match percentage change: Week 8, over 8 weeks
From the text: as §1
The fourth test is the Feature Match (aka Feature Selection), which addresses concentration and attention, and correlates well with aging. It can detect early Alzheimer's disease, and non-Alzheimer's dementia.
as §2, §3

[5] = tested on: cognitive function of participants with Subjective Cognitive Decline; assay: Cambridge Brain Sciences (CBS) battery, combined means of all four tests; assay type: in vivo, human
From the text: as §1, §3

[6] = tested on: acute or chronic pain; conditions: 60 mg of BCP daily, by day 4; 31 participants; cited from earlier work
[7] = one capsule daily (90 mg BCP), N=26
[8] = one capsule daily (90 mg BCP), Week 8, over 8 weeks
[9] = two capsules daily (180 mg BCP), N=25
[10] = one capsule daily (90 mg BCP), N=25
[11] = two capsules daily (180 mg BCP), N=22
[12] = two capsules daily (180 mg BCP)
[13] = one capsule daily (90 mg BCP), N=23
[14] = one capsule daily (90 mg BCP), N=24
[15] = one capsule daily (90 mg BCP), all participants
[16] = one capsule daily (90 mg BCP), baseline mean greater than 100
[17] = one capsule daily (90 mg BCP), baseline mean less than or equal to 100
[18] = two capsules daily (180 mg BCP), all participants
[19] = two capsules daily (180 mg BCP), baseline mean greater than 100
[20] = two capsules daily (180 mg BCP), baseline mean less than or equal to 100

For `C=C1CC/C=C(\C)CC[C@@H]2[C@@H]1CC2(C)C` [BCP, beta-caryophyllene], the “Spatial Planning: % of participants with no change between baseline and week 8” value [1, 7] was “(8%)”, the “Spatial Planning: number of participants improved between baseline and week 8” value [1, 7] was 19 and the “Spatial Planning: number of participants with no change between baseline and week 8” value [1, 7] was 2. The “Spatial Planning: number of participants worsened between baseline and week 8” value [1, 7] was 5, the “Spatial Planning actual score” value ([1]; one capsule daily (90 mg BCP), Week 4, normal 87-113) was 104 ± 9 and the “Spatial Planning percentage change” value [1, 8] was “+2.3%”. The “Spatial Planning: % of participants with no change between baseline and week 8” value [1, 9] was “(8%)”, the “Spatial Planning: number of participants improved between baseline and week 8” value [1, 9] was 18 and the “Spatial Planning: number of participants with no change between baseline and week 8” value [1, 9] was 2. The “Spatial Planning: number of participants worsened between baseline and week 8” value [1, 9] was 5, the “Double Trouble: number of participants improved between baseline and week 8” value [2, 10] was 15 and the “Double Trouble: number of participants with no change between baseline and week 8” value [2, 10] was 0. The “Double Trouble: number of participants worsened between baseline and week 8” value [2, 10] was 9, the “Double Trouble: % of participants with sub-optimal score” value ([2]; one capsule daily (90 mg BCP), week 8 (56% at baseline)) was 44% and the “Double Trouble actual score” value ([2]; one capsule daily (90 mg BCP)) was 93 ± 15. The “Double Trouble percentage change” value [2, 8] was “+5.3%”, the “Double Trouble: % of participants with no change between baseline and week 8” value [2, 11] was “(14%)” and the “Double Trouble: number of participants improved between baseline and week 8” value [2, 11] was 14. The “Double Trouble: number of participants with no change between baseline and week 8” value [2, 11] was 3, the “Double Trouble: number of participants worsened between baseline and week 8” value [2, 11] was 5 and the “Double Trouble actual score” value [2, 12] was 97.3 ± 15.2. The “Monkey Ladder: % of participants with no change between baseline and week 8” value [3, 13] was “(4%)”, the “Monkey Ladder: number of participants improved between baseline and week 8” value [3, 13] was 16 and the “Monkey Ladder: number of participants with no change between baseline and week 8” value [3, 13] was 1. The “Monkey Ladder: number of participants worsened between baseline and week 8” value [3, 13] was 6, the “Monkey Ladder actual score” value ([3]; one capsule daily (90 mg BCP)) was 103.8 ± 6.7 and the “Monkey Ladder percentage change” value [3, 8] was “+2.5%”. The “Monkey Ladder: % of participants with no change between baseline and week 8” value [3, 9] was “(28%)”, the “Monkey Ladder: number of participants improved between baseline and week 8” value [3, 9] was 17 and the “Monkey Ladder: number of participants with no change between baseline and week 8” value [3, 9] was 7. For the same compound, the “Monkey Ladder: number of participants worsened between baseline and week 8” value [3, 9] was 1, the “Monkey Ladder actual score” value [3, 12] was 103.7 ± 8.1 and the “Feature Match: % of participants with no change between baseline and week 8” value [4, 14] was “(13%)”. The “Feature Match: number of participants improved between baseline and week 8” value [4, 14] was 13, the “Feature Match: number of participants with no change between baseline and week 8” value [4, 14] was 3 and the “Feature Match: number of participants worsened between baseline and week 8” value [4, 14] was 8. The “Feature Match actual score” value ([4]; one capsule daily (90 mg BCP)) was 98.3 ± 6.9, the “Feature Match percentage change” value ([4]; one capsule daily (90 mg BCP)) was “+2.0%” and the “Feature Match: % of participants with no change between baseline and week 8” value [4, 9] was “(16%)”. The “Feature Match: number of participants improved between baseline and week 8” value [4, 9] was 10, the “Feature Match: number of participants with no change between baseline and week 8” value [4, 9] was 4 and the “Feature Match: number of participants worsened between baseline and week 8” value [4, 9] was 11. The “Feature Match actual score” value [4, 12] was 98.4 ± 7.6, the “Feature Match percentage change” value [4, 12] was “No change” and the “% of subjects with sub-optimal baseline score (less than 87) who improved to a normal score on any test” value ([5]; one capsule daily (90 mg BCP), during the 8-week study) was 31%. For the same compound, the “Mean of four tests scores at week 8” value [5, 15] was 99.8, the “Percentage change (mean ± S.D.) of mean of four tests scores, baseline to week 8” value (shortened to “Percentage change … to week 8”) [5, 15] was 3.6±10.0% and the “Mean of four tests scores at week 8” value [5, 16] was 108.7. The “Percentage change … to week 8” value [5, 16] was −0.7±9.4%, the “Mean of four tests scores at week 8” value [5, 17] was 96.8 and the “Percentage change … to week 8” value [5, 17] was 5.0±9.8% and 5%. For the same compound, the “Mean of four tests scores at week 8” value [5, 18] was 101.0, the “Percentage change … to week 8” value [5, 18] was 4.6±12.1% and the “Mean of four tests scores at week 8” value [5, 19] was 104.2. The “Percentage change … to week 8” value [5, 19] was −1.5% and −1.5 ± 7.5%, the “Mean of four tests scores at week 8” value [5, 20] was 98.8 and the “Percentage change … to week 8” value [5, 20] was 9.0±12.9% and 9%. The “% of participants reporting mitigation of pain” value [6] was 60%.
